# Reference: patent US5550139A, “Serine protease inhibitors” (The Wichita State University, priority 1994, dated 1996)
# Key:
# cathepsin G (Cath G) = biological target: T1, cathepsin G (Cath G) (Homo sapiens, UniProt P08311); assay: Inactivation of human leukocyte cathepsin G (kobs/[I]); type: biochemical; settings: for kinact/KI: pH 7.5
# T1 construct: purchased Athens Research and Technology, Athens, Ga
# T1 sequence (P08311 21-244 limits assumed): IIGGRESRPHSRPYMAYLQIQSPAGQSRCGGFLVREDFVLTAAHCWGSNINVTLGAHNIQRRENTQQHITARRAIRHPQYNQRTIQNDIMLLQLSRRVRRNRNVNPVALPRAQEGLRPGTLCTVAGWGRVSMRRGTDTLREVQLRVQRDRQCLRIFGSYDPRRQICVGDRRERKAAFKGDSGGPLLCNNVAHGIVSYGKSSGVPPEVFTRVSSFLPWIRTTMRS
# Procedure: Human leukocyte cathepsin G (1.33 uM) is incubated with compound 8 (133 uM) (a) or compound 10 (13.3 uM) (b) in 0.1M HEPES buffer, pH 7.5, and 10% DMSO. Aliquots were withdrawn at different time intervals and assayed for enzymatic activity using methoxysuccinyl Ala-Ala-Pro-Phe p-nitroanilide.
# Human leukocyte cathepsin G (1.48 μM was incubated with inhibitor 5A (1.48 μM in 0.1M HEPES buffer, pH 7.5, and 1% DMSO. Aliquots were withdrawn at different time intervals and assayed for enzymatic activity using methoxysuccinyl Ala-Ala-Pro-Phe p-nitroanilide.
# (§1) An in vitro assay can be used to screen compounds of the invention for the ability to reduce or inhibit serine proteinase activity. The human leukocyte elastase (HLE), cathepsin G (Cath G), and proteinase-3 assays have each been described (Groutas et al., J. Med. Chem. 32:1607-1611, 1989; Groutas et al., Arch. Biochem. Biophys. 294:144-146, 1992; Kao et al., J. Clin. Invest. 82:1963-1973, 1988, each incorporated by reference herein). The pseudo first-order inactivation rate constants (kobs) were obtained from plots of ln(vt /vo) vs t, and expressed in terms of the apparent second-order inactivation rate constant, kobs /[I] M^-1 s^-1 (Tables 1-7). Tables 1-7 disclose the activity of preferred compounds of the invention as inhibitors of HLE and Cath G. Table 7 discloses the activity of Compounds 4A (C) and 3E (D) as inhibitors of Proteinase-3 activity. Compounds (A) and (B) have been disclosed previously (Groutas et al., Bioorganic and Med. Chem. 1(4):273-277, 1993; Groutas et al., J. Med. Chem. 36:3178, 1993).
# (§2) Human leukocyte cathepsin G was obtained from Athens Research and Technology, Athens, Ga. Methoxysuccinyl Ala-Ala-Pro-Val p-nitroanilide and methoxysuccinyl Ala-Ala-Pro-Phe p-nitroanilide were purchased from Sigma Chemicals Co., St. Louis, Mo. Baker-analyzed 60-200 mesh silica gel was used for flash chromatography.
# [1] = biological target: T2, human leukocyte elastase (HLE) (Homo sapiens, UniProt P08246); assay: Inactivation of human leukocyte elastase (kobs/[I]); type: biochemical
# T2 construct: purchased Elastin Products Co., Owensville, Mo
# T2 sequence (P08246 30-247 limits assumed): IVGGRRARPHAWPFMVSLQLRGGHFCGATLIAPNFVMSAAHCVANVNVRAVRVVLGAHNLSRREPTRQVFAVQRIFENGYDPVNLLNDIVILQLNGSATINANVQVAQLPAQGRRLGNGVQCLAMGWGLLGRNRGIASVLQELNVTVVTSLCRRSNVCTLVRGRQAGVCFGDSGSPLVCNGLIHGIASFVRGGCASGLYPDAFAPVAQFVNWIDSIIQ
# Source text: as §1
# XII. Materials: Human leukocyte elastase was purchased from Elastin Products Co., Owensville, Mo.
# as §2
smiles,measurement,setting,value
"O=C1[C@H](Cc2ccccc2)NS(=O)(=O)N1CF [Compound 1A, (S)-4-Benzyl-2-fluoromethyl-3-oxo-1,2,5-thiadiazolidine 1.1-dioxide]",kinact/KI,cathepsin G (Cath G); Table 2,600 M⁻¹ s⁻¹
O=C(N[C@@H](Cc1ccccc1)C(=O)OCN1C(=O)C(Cc2ccccc2)CS1(=O)=O)OCc1ccccc1 (stereo partly shown) [Compound 1B],kinact/KI,[1]; Table 3,110 M⁻¹ s⁻¹
same,kinact/KI,cathepsin G (Cath G); Table 3,20 M⁻¹ s⁻¹
O=C(/C=C/c1ccccc1)OCN1C(=O)C(Cc2ccccc2)CS1(=O)=O (stereo not shown) [Compound 1C],kinact/KI,[1]; Table 4,280 M⁻¹ s⁻¹
same,kinact/KI,cathepsin G (Cath G); Table 4,3220 M⁻¹ s⁻¹
"O=C1C(Cc2ccccc2)CS(=O)(=O)N1CF (stereo not shown) [Compound 1D, 4-benzyl-2-(fluoromethyl)isothiazolidin-3-one 1,1 dioxide]",kinact/KI,[1]; Table 5,160 M⁻¹ s⁻¹
same,kinact/KI,cathepsin G (Cath G); Table 5,2700 M⁻¹ s⁻¹
O=C1[C@H](Cc2ccccc2)N(S(=O)(=O)c2ccccc2)S(=O)(=O)N1CS(=O)(=O)c1ccccc1 [Compound 1E],kinact/KI,cathepsin G (Cath G); Table 6,830 M⁻¹ s⁻¹
CC(C)Cc1ccc(C(C)C(=O)OCN2C(=O)C(Cc3ccccc3)CS2(=O)=O)cc1 (stereo not shown) [Compound 1],kinact/KI,[1]; Table 1A,160 M⁻¹ s⁻¹
same,kinact/KI,cathepsin G (Cath G); Table 1A,240 M⁻¹ s⁻¹
"CN1[C@@H](Cc2ccccc2)C(=O)N(CF)S1(=O)=O [Compound 2A, (S)-4-Benzyl-2-fluoromethyl-5-methyl-3-oxo-1,2,5-thiadiazolidine 1.1-dioxide]",kinact/KI,[1]; Table 2,1320 M⁻¹ s⁻¹
same,kinact/KI,cathepsin G (Cath G); Table 2,750 M⁻¹ s⁻¹
CC(C)(C)OC(=O)N[C@@H](Cc1ccccc1)C(=O)OCN1C(=O)C(Cc2ccccc2)CS1(=O)=O (stereo partly shown) [Compound 2B],kinact/KI,[1]; Table 3,680 M⁻¹ s⁻¹
same,kinact/KI,cathepsin G (Cath G); Table 3,10 M⁻¹ s⁻¹
O=C(CCc1ccccc1)OCN1C(=O)C(Cc2ccccc2)CS1(=O)=O (stereo not shown) [Compound 2C],kinact/KI,[1]; Table 4,680 M⁻¹ s⁻¹
same,kinact/KI,cathepsin G (Cath G); Table 4,640 M⁻¹ s⁻¹
O=C1C(Cc2ccccc2)CS(=O)(=O)N1CCl (stereo not shown) [Compound 2D],kinact/KI,[1]; Table 5,670 M⁻¹ s⁻¹
same,kinact/KI,cathepsin G (Cath G); Table 5,2040 M⁻¹ s⁻¹
CC(C)C[C@@H]1NS(=O)(=O)N(CS(=O)(=O)c2ccccc2)C1=O [Compound 2E],kinact/KI,[1]; Table 6,190 M⁻¹ s⁻¹
O=C(Cc1ccccc1Nc1c(Cl)cccc1Cl)OCN1C(=O)C(Cc2ccccc2)CS1(=O)=O (stereo not shown) [Compound 2],kinact/KI,[1]; Table 1A,30 M⁻¹ s⁻¹
same,kinact/KI,cathepsin G (Cath G); Table 1A,80 M⁻¹ s⁻¹
"O=C1[C@H](Cc2ccccc2)N(Cc2ccccc2)S(=O)(=O)N1CF [Compound 3A, (S)-4.5-Dibenzyl-2-fluoromethyl-3-oxo-1,2,5-thiadiazolidine 1.1-dioxide]",kinact/KI,[1]; Table 2,930 M⁻¹ s⁻¹
O=C(N[C@H](Cc1ccccc1)C(=O)OCN1C(=O)C(Cc2ccccc2)CS1(=O)=O)OCc1ccccc1 (stereo partly shown) [Compound 3B],kinact/KI,[1]; Table 3,2300 M⁻¹ s⁻¹
same,kinact/KI,cathepsin G (Cath G); Table 3,160 M⁻¹ s⁻¹
O=C(CSc1ccccc1)OCN1C(=O)C(Cc2ccccc2)CS1(=O)=O (stereo not shown) [Compound 3C],kinact/KI,[1]; Table 4,1020 M⁻¹ s⁻¹
same,kinact/KI,cathepsin G (Cath G); Table 4,3340 M⁻¹ s⁻¹
CC(C(=O)OCN1C(=O)C(Cc2ccccc2)CS1(=O)=O)c1cccc(C(=O)c2ccccc2)c1 (stereo not shown) [Compound 3],kinact/KI,[1]; Table 1A,210 M⁻¹ s⁻¹
same,kinact/KI,cathepsin G (Cath G); Table 1A,290 M⁻¹ s⁻¹
CC(C)(C)OC(=O)N[C@H](Cc1ccccc1)C(=O)OCN1C(=O)C(Cc2ccccc2)CS1(=O)=O (stereo partly shown) [Compound 4B],kinact/KI,[1]; Table 3,1140 M⁻¹ s⁻¹
same,kinact/KI,cathepsin G (Cath G); Table 3,260 M⁻¹ s⁻¹
O=C(C[S+]([O-])c1ccccc1)OCN1C(=O)C(Cc2ccccc2)CS1(=O)=O (stereo not shown) [Compound 4C],kinact/KI,[1]; Table 4,320 M⁻¹ s⁻¹
same,kinact/KI,cathepsin G (Cath G); Table 4,770 M⁻¹ s⁻¹
CC(C)C[C@H]1C(=O)N(CS(=O)(=O)c2ccccc2)S(=O)(=O)N1CC(=O)OCc1ccccc1 [Compound 4E],kinact/KI,[1]; Table 6,1710 M⁻¹ s⁻¹
CC(=O)Oc1ccccc1C(=O)OCN1C(=O)C(Cc2ccccc2)CS1(=O)=O (stereo not shown) [Compound 4],kinact/KI,[1]; Table 1A,830 M⁻¹ s⁻¹
same,kinact/KI,cathepsin G (Cath G); Table 1A,3000 M⁻¹ s⁻¹
"O=C(CN1[C@@H](Cc2ccccc2)C(=O)N(CF)S1(=O)=O)OCc1ccccc1 [Compound 5A, (S) -Benzyl-5(benzyloxycarbonylmethyl)-2-fluoromethyl-3-oxo-1,2,5-thiadiazolidine 1.1-dioxide]",kinact/KI,[1]; Table 2,810 M⁻¹ s⁻¹
same,time-dependent loss of serine protease activity,"cathepsin G (Cath G); FIG. 6, Cath G 1.48 μM, inhibitor 1.48 μM, 0.1M HEPES pH 7.5, 1% DMSO",time-dependent loss of serine protease activity
O=C(OCN1C(=O)C(Cc2ccccc2)CS1(=O)=O)[C@@H]1CCCN1C(=O)OCc1ccccc1 (stereo partly shown) [Compound 5B],kinact/KI,[1]; Table 3,220 M⁻¹ s⁻¹
same,kinact/KI,cathepsin G (Cath G); Table 3,7700 M⁻¹ s⁻¹
O=C(CS(=O)(=O)c1ccccc1)OCN1C(=O)C(Cc2ccccc2)CS1(=O)=O (stereo not shown) [Compound 5C],kinact/KI,[1]; Table 4,340 M⁻¹ s⁻¹
same,kinact/KI,cathepsin G (Cath G); Table 4,1050 M⁻¹ s⁻¹
CC(C)C[C@H]1C(=O)N(CS(=O)(=O)c2ccccc2)S(=O)(=O)N1CC(=O)OC(C)(C)C [Compound 5E],kinact/KI,[1]; Table 6,2020 M⁻¹ s⁻¹
Nc1ccc(O)c(C(=O)OCN2C(=O)C(Cc3ccccc3)CS2(=O)=O)c1 (stereo not shown) [Compound 5],kinact/KI,[1]; Table 1A,470 M⁻¹ s⁻¹
same,kinact/KI,cathepsin G (Cath G); Table 1A,3330 M⁻¹ s⁻¹
CC(C)(C)OC(=O)N1CCC[C@H]1C(=O)OCN1C(=O)C(Cc2ccccc2)CS1(=O)=O (stereo partly shown) [Compound 6B],kinact/KI,[1]; Table 3,170 M⁻¹ s⁻¹
same,kinact/KI,cathepsin G (Cath G); Table 3,590 M⁻¹ s⁻¹
O=C(/C=C\Sc1ccccc1)OCN1C(=O)C(Cc2ccccc2)CS1(=O)=O (stereo not shown) [Compound 6C],kinact/KI,[1]; Table 4,170 M⁻¹ s⁻¹
same,kinact/KI,cathepsin G (Cath G); Table 4,7270 M⁻¹ s⁻¹
"O=C1C(Cc2ccccc2)CS(=O)(=O)N1C(CF)Sc1ccccc1 (stereo not shown) [Compound 7, 4-Benzyl-2-(2-fluoro-1-phenylthioethyl) isothiazolidin-3-one 1,1-dioxide]",HLE % inhibition,"[1]; Table 1B footnote, [I]/[E] ratio of 200, 10 minute incubation period",24%
same,kinact/KI,cathepsin G (Cath G); Table 1B,40 M⁻¹ s⁻¹
O=C(OCN1C(=O)C(Cc2ccccc2)CS1(=O)=O)[C@H]1CCCN1C(=O)OCc1ccccc1 (stereo partly shown) [Compound 7B],kinact/KI,[1]; Table 3,520 M⁻¹ s⁻¹
same,kinact/KI,cathepsin G (Cath G); Table 3,360 M⁻¹ s⁻¹
O=C(/C=C/Sc1ccccc1)OCN1C(=O)C(Cc2ccccc2)CS1(=O)=O (stereo not shown) [Compound 7C],kinact/KI,[1]; Table 4,240 M⁻¹ s⁻¹
same,kinact/KI,cathepsin G (Cath G); Table 4,5520 M⁻¹ s⁻¹
"O=C1C(Cc2ccccc2)CS(=O)(=O)N1C(CF)S(=O)(=O)c1ccccc1 (stereo not shown) [Compound 8, 4-Benzyl-2-(2-fluoro-1-phenylsulfonylethyl) isothiazolidin-3-one 1,1-dioxide]",kinact/KI,[1]; Table 1B,50 M⁻¹ s⁻¹
same,time-dependent loss of serine protease activity,"cathepsin G (Cath G); FIG. 5, Cath G 1.33 uM, inhibitor 133 uM, 0.1M HEPES pH 7.5, 10% DMSO",time-dependent loss of serine protease activity
same,kinact/KI,cathepsin G (Cath G); Table 1B,420 M⁻¹ s⁻¹
C[C@H](NC(=O)OCc1ccccc1)C(=O)OCN1C(=O)C(Cc2ccccc2)CS1(=O)=O (stereo partly shown) [Compound 8B],kinact/KI,[1]; Table 3,50 M⁻¹ s⁻¹
same,kinact/KI,cathepsin G (Cath G); Table 3,2770 M⁻¹ s⁻¹
O=C(C=CS(=O)(=O)c1ccccc1)OCN1C(=O)C(Cc2ccccc2)CS1(=O)=O (stereo not shown) [Compound 8C],kinact/KI,[1]; Table 4,380 M⁻¹ s⁻¹
same,kinact/KI,cathepsin G (Cath G); Table 4,2770 M⁻¹ s⁻¹
O=C1[C@H](Cc2ccccc2)NS(=O)(=O)N1CCl [Compound 8E],kinact/KI,cathepsin G (Cath G); Table 6,30 M⁻¹ s⁻¹
O=C1[C@H](Cc2ccccc2)NS(=O)(=O)N1CS(=O)(=O)c1ccccc1 [Compound 10E],kinact/KI,cathepsin G (Cath G); Table 6,30 M⁻¹ s⁻¹
CN1[C@@H](Cc2ccccc2)C(=O)N(CS(=O)(=O)c2ccccc2)S1(=O)=O [Compound 11E],kinact/KI,cathepsin G (Cath G); Table 6,130 M⁻¹ s⁻¹
CCCCN1[C@@H](Cc2ccccc2)C(=O)N(CS(=O)(=O)c2ccccc2)S1(=O)=O [Compound 12E],kinact/KI,cathepsin G (Cath G); Table 6,320 M⁻¹ s⁻¹
O=C1C(Cc2ccccc2)CS(=O)(=O)N1C[S+]([O-])c1ccccc1 (stereo not shown) [Compound 13D],kinact/KI,cathepsin G (Cath G); Table 5,590 M⁻¹ s⁻¹
O=C1C(Cc2ccccc2)CS(=O)(=O)N1CS(=O)(=O)c1ccccc1 (stereo not shown) [Compound 14D],Cath G kobs/[I],cathepsin G (Cath G); Table 5,960 M⁻¹ s⁻¹
CC(C)(C)OC(=O)CN1[C@@H](Cc2ccccc2)C(=O)N(CS(=O)(=O)c2ccccc2)S1(=O)=O [Compound 14E],kinact/KI,cathepsin G (Cath G); Table 6,1130 M⁻¹ s⁻¹
CS(=O)(=O)CN1C(=O)C(Cc2ccccc2)CS1(=O)=O (stereo not shown) [Compound 15D],kinact/KI,cathepsin G (Cath G); Table 5,2080 M⁻¹ s⁻¹
O=C1[C@H](Cc2ccccc2)N(C/C=C/c2ccccc2)S(=O)(=O)N1CS(=O)(=O)c1ccccc1 [Compound 15E],kinact/KI,cathepsin G (Cath G); Table 6,760 M⁻¹ s⁻¹
CCCCN1[C@@H](CC(C)C)C(=O)N(CS(=O)(=O)c2ccccc2)S1(=O)=O [Compound 16E],kinact/KI,[1]; Table 6,10600 M⁻¹ s⁻¹
CC(C)C[C@H]1C(=O)N(CS(=O)(=O)c2ccccc2)S(=O)(=O)N1Cc1ccccc1 [Compound 17E],kinact/KI,cathepsin G (Cath G); Table 6,440 M⁻¹ s⁻¹
CC(C)C[C@H]1C(=O)N(CS(C)(=O)=O)S(=O)(=O)N1C [Compound 18E],kinact/KI,[1]; Table 6,4590 M⁻¹ s⁻¹
